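How tested: cells in 96-well plates exposed to compound for 48 hours at five concentrations. GI50 marks 50% less growth.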 Active and inactive are the calls of the source. Cut-off read from the data, not from the text of the source: active = GI50 up to about 1.1 µM and inactive = higher. *1 amine or outer side, *2 acyl side, *3 side chain or, on linkers, in order; H or OH if unused. Where a SMILES comes first, the peptide text is derived from it. [ ]: non-standard residue; d: D form. The star is where a group is joined. ξ: configuration not given here. X43 = CCC(=O)CC(O)CC(C)CC(N[*:1])C(=O)[*:2]; ξLeu(3ξ-OH) = CC(C)C(O)C(N)C(=O)O; ξPro(4ξ-Me) = CC1CNC(C(=O)O)C1; X42 = CCC(C)/C=C/C(=O)*; Aib = CC(C)(N)C(=O)O; X44 = CC(CN(C)C)N*; βAla = NCCC(=O)O A value given as a limit tells only on which side of the number the result lay.

What all share (test): growth of human tumour cells (NCI), 48 h
For assay [1], the system named is A498.
The test system of assay [2] is CCRF-CEM.
Assay [3] relates to EKVX.
Assay [4] deals with HCC 2998.
Assay [5] has as its system HCT-116.
The test system of assay [6] is HL-60.
Assay [7] deals with HOP-92.
In assay [8] the test system is Hs-578T.
Assay [9] deals with IGROV-1.
Assay [10] has as its system KM12.
Assay [11] concerns LOX IMVI.
Assay [12] relates to MOLT-4.
Assay [13] relates to Malme-3M.
Assay [14] concerns NCI-H460.
Assay [15] concerns OVCAR-3.
For assay [16], the system named is RPMI-8226.
The test system of assay [17] is SF-268.
In assay [18] the test system is SN12C.
In assay [19] the test system is U-251.
In assay [20] the test system is UO-31.

For the compound `Cc1nc(Nc2ccc(Cl)cc2Cl)sc1C(=O)Nc1ccccc1`, the GI50 is > 100 µM (inactive) in assay [1]; 34.1 µM (inactive) in assay [2]; 84.7 µM (inactive) in assay [3]; 72.1 µM (inactive) in [4]; 35.1 µM (inactive) in [5]; > 10 µM (inactive) in assay [6]. Also, the GI50 was 31.3 µM (inactive) in assay [7]; 47 µM (inactive) in assay [8]; 63.4 µM (inactive) in [9]; 35.8 µM (inactive) in assay [10]; 23.4 µM (inactive) in assay [11]; 10.9 µM (inactive) in [12]. The GI50 in assay [13] was > 100 µM (inactive); in [14] it was 37.9 µM (inactive); in [15] it was 97.1 µM (inactive); in assay [16], 29.2 µM (inactive); in assay [17], 77.6 µM (inactive); in assay [18], > 100 µM (inactive). The GI50 is 25.9 µM (inactive) in assay [19] and 29.6 µM (inactive) in assay [20].

`Clc1ccc(/C=C/c2nc(-c3ccc(Cl)cc3)cn3c2nc2ccccc23)cc1`: the GI50 in [1], in [2], in [3], in assay [4], in assay [5] and in assay [6] was > 100 µM (inactive) each time. Moreover, the GI50 in assay [7] was > 100 µM (inactive); in assay [8], > 100 µM (inactive); in assay [9], 55.7 µM (inactive); in assay [10], > 100 µM (inactive); in [11], > 100 µM (inactive); in assay [12], 45.1 µM (inactive). Moreover, the GI50 in assay [13], in assay [14], in assay [15], in assay [16], in [17] and in assay [18] was > 100 µM (inactive) throughout. Besides, the GI50 in assay [19] and in assay [20] was > 100 µM (inactive) in each case.

As to `COc1ccc(CSC2=C(C#N)C(=O)NC3(CCCCC3)S2)cc1`, the GI50 in assay [1] is > 63.5 µM (inactive); in [2], 2.66 µM (inactive); in [3], 54 µM (inactive); in [4], 28.2 µM (inactive); in [5], 44.5 µM (inactive); in assay [6], 3.63 µM (inactive). Moreover, the GI50 in assay [7] was > 55.7 µM (inactive); in assay [8] it was 41.9 µM (inactive); in assay [9] it was > 69.7 µM (inactive); in assay [11], 30.1 µM (inactive); in assay [12] it was 36.9 µM (inactive); in assay [13], 54.5 µM (inactive). The GI50 in assay [14] is 69 µM (inactive); in assay [15], 35.2 µM (inactive); in assay [16], > 56.6 µM (inactive); in assay [17], 47.1 µM (inactive); in assay [18] it was 65.2 µM (inactive); in assay [19] it was 48.4 µM (inactive). For the same compound, in assay [20], the GI50 was 96.4 µM (inactive).

`C[N+]1(C(CO)Cc2c[nH]c3ccccc23)Cc2ccccc2C1` (centres undefined): the GI50 was 66.5 µM (inactive) in assay [1]; > 100 µM (inactive) in assay [2]; 62.4 µM (inactive) in [3]; > 100 µM (inactive) in assay [4]; > 100 µM (inactive) in assay [5]; > 100 µM (inactive) in assay [6]. Further, the GI50 was 92.5 µM (inactive) in [7]; > 100 µM (inactive) in [8]; > 100 µM (inactive) in assay [9]; > 100 µM (inactive) in assay [10]; > 100 µM (inactive) in assay [11]; > 100 µM (inactive) in assay [12]. The GI50 in [13] is 13.7 µM (inactive); in [14], > 100 µM (inactive); in assay [15], > 100 µM (inactive); in assay [16], 76.6 µM (inactive); in [17], > 100 µM (inactive); in assay [18] it was > 100 µM (inactive). In addition, the GI50 in [19] and in assay [20] was > 100 µM (inactive) each time.

Take `OCc1ccc2c(c1)CC1(Cc3ccc(/C=N/O)cc3C1)C2` (centres undefined): the GI50 in assay [1] is 27.7 µM (inactive); in [2] it was 1.96 µM (inactive); in assay [3], 6.73 µM (inactive); in [4], 1.97 µM (inactive); in [5], 3.26 µM (inactive); in assay [6], 0.41 µM (active). For the same compound, the GI50 in assay [7] is 7.74 µM (inactive); in assay [8], 2.45 µM (inactive); in assay [9], 2.84 µM (inactive); in [10], 1.29 µM (inactive); in [11], 2.93 µM (inactive); in assay [12], 4.73 µM (inactive). Besides, the GI50 in assay [13] was 9.1 µM (inactive); in [14] it was 3.3 µM (inactive); in assay [15], 2.74 µM (inactive); in assay [16], 2.25 µM (inactive); in assay [17] it was 13.7 µM (inactive); in assay [18], 2.61 µM (inactive). Also, the GI50 in assay [19] was 2.86 µM (inactive); in assay [20], 7.08 µM (inactive).

In the case of `O=C1/C(=C/c2ccccc2)CCc2ccc([N+](=O)[O-])cc21`, the GI50 in assay [1] was > 78.7 µM (inactive); in assay [2], 4.13 µM (inactive); in assay [3], > 91.8 µM (inactive); in assay [4], > 88.3 µM (inactive); in assay [5] it was 24.4 µM (inactive); in [6], 1.86 µM (inactive). The GI50 in assay [7] is 81.5 µM (inactive); in assay [8], 37.4 µM (inactive); in assay [9], 72.9 µM (inactive); in [10], 42.3 µM (inactive); in [11], 21.5 µM (inactive); in assay [12], 10.8 µM (inactive). Moreover, the GI50 in assay [13] is 46.8 µM (inactive); in assay [14] it was > 100 µM (inactive); in [15], > 100 µM (inactive); in assay [16] it was 0.492 µM (active); in assay [17], 30.7 µM (inactive); in assay [18] it was > 75.9 µM (inactive). Further, the GI50 in assay [19] was 27.1 µM (inactive); in [20], > 82.8 µM (inactive).

On to `CCC(=O)CC(O)CC(C)CC(NC(=O)C1CC(C)CN1C(=O)/C=C/C(C)CC)C(=O)NC(C(=O)NC(C)(C)C(=O)NC(CC(C)C)C(=O)NC(CC(C)C)C(=O)NC(C)(C)C(=O)NC(C)(C)C(=O)NCCC(=O)NC(C)CN(C)C)C(O)C(C)C` (centres undefined) (X42-[ξPro(4ξ-Me)][X43][ξLeu(3ξ-OH)][Aib]LL[Aib][Aib][βAla]-X44; configuration not given here), for which the GI50 in assay [1] was 0.495 µM (active); in assay [2], < 0.005 µM (active); in assay [3], < 0.005 µM (active); in assay [4], 0.153 µM (active); in assay [5], 0.0235 µM (active); in assay [6], 0.00951 µM (active). Also, the GI50 was 0.0887 µM (active) in assay [7]; 0.0132 µM (active) in assay [8]; 0.0746 µM (active) in assay [9]; 0.0412 µM (active) in [10]; 0.199 µM (active) in assay [11]; 0.00887 µM (active) in assay [12]. The GI50 in [13] is 0.133 µM (active); in assay [14], 0.0374 µM (active); in assay [15], 0.0074 µM (active); in assay [16], 0.0218 µM (active); in assay [17] it was 0.0526 µM (active); in [18], 0.261 µM (active). For the same compound, the GI50 was < 0.005 µM (active) in [19] and 5.87 µM (inactive) in assay [20].

On to `COC1(OC)C[C@H](C)[C@@]23O[C@]24C2=CC(=O)C=CC2=N[C@H]3C#C/C=C\C#C[C@]14O`, for which the GI50 in assay [1] was 0.91 µM (active); in [2], 0.044 µM (active); in assay [3], 0.578 µM (active); in assay [4] it was 0.67 µM (active); in assay [5] it was 0.364 µM (active); in assay [6], 0.0431 µM (active). In addition, the GI50 in [7] is 0.532 µM (active); in assay [8], 0.904 µM (active); in [9] it was 0.724 µM (active); in [10], 0.474 µM (active); in assay [11] it was 0.3 µM (active); in assay [12], 0.0187 µM (active). The GI50 in [13] was 0.671 µM (active); in assay [14], 0.344 µM (active); in [15], 0.431 µM (active); in [16], 0.123 µM (active); in assay [17] it was 0.711 µM (active); in assay [18] it was 0.973 µM (active). In addition, the GI50 in assay [19] was 0.805 µM (active); in assay [20], 0.355 µM (active).

With `CC(C)(CO[C@H]1C[C@H]2CC[C@@]1(C)C2(C)C)[N+](=O)[O-]`, the GI50 in [1] was 22.7 µM (inactive); in assay [2], 18.8 µM (inactive); in assay [3] it was 16.7 µM (inactive); in [4], 2.07 µM (inactive); in [5] it was 15.3 µM (inactive); in assay [6], 0.0363 µM (active). Also, the GI50 is 14.6 µM (inactive) in [7]; 27.4 µM (inactive) in assay [8]; 30.8 µM (inactive) in assay [9]; 17.4 µM (inactive) in assay [10]; 18.1 µM (inactive) in assay [11]; 18.1 µM (inactive) in [12]. The GI50 in [13] is 20.3 µM (inactive); in assay [14] it was 19.6 µM (inactive); in assay [15], 22.8 µM (inactive); in assay [16], 17.7 µM (inactive); in assay [17] it was 33 µM (inactive); in assay [18], 27.4 µM (inactive). The GI50 in [19] was 16.7 µM (inactive); in assay [20], 12.5 µM (inactive).

For `O=S(=O)(O)C(CO)c1ccccc1.O=S(=O)(O)Cc1ccccc1` (centres undefined), the GI50 is > 100 µM (inactive) in [1]; 19.6 µM (inactive) in [2]; > 100 µM (inactive) in [3]; > 100 µM (inactive) in assay [4]; > 100 µM (inactive) in assay [5]; 5.35 µM (inactive) in [6]. The GI50 in assay [7] is > 100 µM (inactive); in assay [8], 96.4 µM (inactive); in assay [9], > 100 µM (inactive); in assay [10], > 100 µM (inactive); in assay [11], > 100 µM (inactive); in [12], > 100 µM (inactive). The GI50 in assay [13], in [14], in assay [15], in assay [16], in assay [17] and in [18] was > 100 µM (inactive) in each case. Moreover, the GI50 in assay [19] and in assay [20] was > 100 µM (inactive) in each case.

Source of the values: ChEMBL document CHEMBL1201862, “PubChem BioAssay data set” (2004).
